The OPERA property sets (Mansouri et al. 2018)

Row | Structure (SMILES) | logP
1 | COc1cncnc1 | 0.07
2 | CCCCc1nc(C#N)c(C#N)nc1C | 2.3
3 | CC(=O)Nc1ccncn1 | 0.03
4 | CCOC(=O)c1cncnc1 | 0.52
5 | Cc1cncnc1 | 0.01
6 | COC(=O)c1ccoc1 | 1.28
7 | COC(=O)c1ncccn1 | -0.71
8 | CCOc1cncnc1 | 0.56
9 | CCOC(=O)c1ncccn1 | -0.31
10 | CN(C)c1ccncn1 | 0.58
11 | CCc1nccnc1OC | 1.8
12 | CSc1ncccn1 | 1.01
13 | Fc1cncc(F)n1 | 0.74
14 | Fc1ncccn1 | 0.02
15 | NC(=O)c1cncnc1 | -0.92
16 | COC(=O)c1ccncn1 | -0.27
17 | COC(=O)c1cncnc1 | 0.03
18 | Nc1cnc(Cl)cn1 | 0.67
19 | CCOc1nccnc1C | 1.82
20 | NC(=O)c1ncccn1 | -1.2
21 | CCOc1ncccn1 | 0.74
22 | CC(=O)Nc1cncnc1 | -0.22
23 | CN(C)c1ncccn1 | 1.07
24 | CN(C)c1cncnc1 | 0.46
25 | NC(=O)c1ccncn1 | -0.68
26 | Clc1ncccn1 | 0.36

Next, values leading:

Row | logP | Structure (SMILES)
27 | 0.95 | N#Cc1ncc(Cl)nc1C#N
28 | 0.63 | CCOc1cccnn1
29 | -0.73 | NC(=O)c1cccnn1
30 | -0.27 | COC(=O)c1ccnnc1
31 | 0.23 | CCOC(=O)c1ccnnc1
32 | -0.63 | N#Cc1ccnnc1
33 | -0.31 | N#Cc1ncccn1
34 | -0.43 | COC(=O)c1cccnn1
35 | -0.05 | Cc1ncccn1
36 | -0.31 | COc1ccnnc1
37 | 0.1 | Clc1cccnn1
38 | -0.35 | Cc1cccnn1
39 | -0.96 | NC(=O)c1ccnnc1
40 | -0.32 | Cc1ccnnc1
41 | 0.54 | COc1ccncn1
42 | -0.25 | Nc1ccncn1
43 | -0.53 | Nc1ccnnc1
44 | 0.08 | COc1cccnn1
